Key:
[1] = tested on: NCI-H1417 cells; assay: Cell growth suppression test, CellTiter-Glo Luminescent Cell Viability Assay; assay type: cell-based; details: Homo sapiens, 240 h; NCI-H1417 cells treated for 10 days
Experimental: Cell growth suppression effects of the synthesized compounds on NCI-H1417 cells were identified. The cells were treated with the synthesized compounds for 10 days. Then, in order to test the cell growth suppression, CellTiter-Glo Luminescent Cell Viability Assay (available from Promega, USA) was used. This test is to measure emission signals proportional to the number of ATPs based on a fixed amount of ATPs, which represents the presence of metabolically active cells, thereby determining the number of viable cells. The results are expressed as a GI50 value. As for a control, GSK2879552 (available from GlaxoSmithKline USA) was used.

[2] = target: LSD1 (Homo sapiens (Human), UniProt O60341); assay: LSD1 histone demethylase inhibition, LSD1 fluorescence analysis kit (BPS Bioscience); assay type: biochemical; details: H2O2/HRP/Amplex Red fluorescence readout
Description: The results are expressed as an IC50 value. As for a control, GSK2879552 (available from GlaxoSmithKline USA) was used.

Question: Which results are given for `O=C(O)c1ccc(CN2CCC(CN[C@@H]3C[C@H]3c3ccccc3)CC2)cc1` [Control, GSK2879552, reference compound]?
Answer: GI50 [1]: 0.591 µM; IC50 [2]: 0.311 µM

Question: How did the GI50 [1] turn out when `CN[C@@H]1CCCN(C(=O)c2cc(-c3ccc(C#N)c(F)c3)n(-c3ccc(C4CC4)cc3F)n2)C1` [Example 6, (R)-4-(1-(4-cyclopropyl-2-fluorophenyl)-3-(3-(methylamino)piperidine-1-carbonyl)-1H-pyrazole-5-yl)-2-fluorobenzonitrile] was run?
Answer: The GI50 was 0.048 µM.

Question: And the IC50 [2]?
Answer: The IC50 was 0.021 µM.

Question: How did the GI50 [1] turn out when `N#Cc1ccc(-c2cc(C(=O)N3CCC[C@@H](N)C3)nn2-c2ccc3c(c2)CCC3)cc1F` [Example 88, (R)-4-(3-(3-aminopiperidine-1-carbonyl)-1-(2,3-dihydro-1H-inden-5-yl)-1H-pyrazole-5-yl)-2-fluorobenzonitrile] was run?
Answer: The GI50 was 0.173 µM.

Question: With `CN[C@@H]1CCCN(C(=O)c2cc(-c3ccc(C#N)cc3)n(-c3ccc4c(c3)CCC4)n2)C1` [Example 89, (R)-4-(1-(2,3-dihydro-1H-inden-5-yl)-3-(3-(methylamino)piperidine-1-carbonyl)-1H-pyrazole-5-yl)benzonitrile] as the compound, how does the GI50 [1] read?
Answer: The GI50 was 0.071 µM.
